Assay results as given in ChEMBL document CHEMBL1146967, “The geminal dimethyl analogue of Flurbiprofen as a novel Abeta42 inhibitor and potential Alzheimer's disease modifying agent” (Bioorg Med Chem Lett, 2006).
Active and inactive are the calls of the source. The rule behind the calls is not given here.

Columns and labels:
[1] = Inhibition of beta amyloid protein 42 in HEK cell lines overexpressing APP695 at 100 uM; type: functional; conditions: Homo sapiens, HEK293
HEK293 = test: Inhibition of beta amyloid protein 40 in HEK cell lines overexpressing APP695; type: functional, cell-based; conditions: Homo sapiens
[2] = molecular target: T1, Gamma-secretase (Homo sapiens) (UniProt Q96BI3+Q9NZ42+Q8WW43+P49768+Q92542+P49810); test: Inhibition of beta amyloid protein 42 in SH-SY5Y cell lines overexpressing SPA4CT at 100 uM; type: functional, cell-based
[3] = Inhibition of beta amyloid protein 42 in HEK cell lines overexpressing APP695 at 40 uM; type: functional; conditions: Homo sapiens, HEK293
[4] = molecular target: T1, Gamma-secretase (Homo sapiens); test: Inhibition of beta amyloid protein 42 in SH-SY5Y cell lines overexpressing SPA4CT at 30 uM; type: functional, cell-based
Mus musculus [5] = test: Drug level in mouse brain at 50 mg/kg, po; type: ADME, organism-based; parameters: dose 50 mg/kg, route oral; conditions: in vivo, read-out: Drug uptake
Mus musculus [6] = test: Drug level in mouse plasma at 50 mg/kg, po; type: ADME, organism-based; parameters: dose 50 mg/kg, route oral; conditions: in vivo, read-out: Drug uptake
[7] = Ratio of drug level in brain against plasma in mice at 50 mg/kg, po; type: ADME, organism-based; parameters: dose 50 mg/kg, route oral; conditions: mouse, brain and plasma, read-out: BBR
[8] = molecular target: T1, Gamma-secretase (Homo sapiens); conditions: SH-SY5Y, 300 uM
Description: Inhibition of beta amyloid protein 42 in SH-SY5Y cell lines overexpressing SPA4CT at 300 uM

[9] = molecular target: T1, Gamma-secretase (Homo sapiens); test: Inhibition of NOTCH receptor cleavage at 200 uM; type: functional
[10] = Oral bioavailability in monkey at 2 mg/kg, po; type: ADME, organism-based, Macaca mulatta; conditions: rhesus monkey, in vivo
[11] = Volume of distribution in rat at 2 mg/kg, iv; type: ADME, organism-based; parameters: dose 2 mg/kg, route intravenous; conditions: in vivo, read-out: Vdss
[12] = Half life in rat at 2 mg/kg, iv; type: ADME, organism-based; parameters: dose 2 mg/kg, route intravenous; conditions: in vivo
[13] = Cmax in rat at 2 mg/kg, po; type: ADME, organism-based; parameters: dose 2 mg/kg, route oral; conditions: in vivo
[14] = Tmax in rat at 2 mg/kg, po; type: ADME, organism-based; parameters: dose 2 mg/kg, route oral; conditions: in vivo
[15] = Oral bioavailability in rat at 2 mg/kg, po; type: ADME, organism-based; conditions: in vivo
[16] = Clearance in mouse at 2 mg/kg, iv; type: ADME, organism-based; parameters: dose 2 mg/kg, route intravenous; conditions: in vivo
[17] = Volume of distribution in mouse at 2 mg/kg, iv; type: ADME, organism-based; parameters: dose 2 mg/kg, route intravenous; conditions: in vivo, read-out: Vdss
[18] = Half life in mouse at 2 mg/kg, iv; type: ADME, organism-based; parameters: dose 2 mg/kg, route intravenous; conditions: in vivo
[19] = Cmax in mouse at 2 mg/kg, po; type: ADME, organism-based; parameters: dose 2 mg/kg, route oral; conditions: in vivo
[20] = molecular target: Prostaglandin G/H synthase 1 (Homo sapiens, UniProt P23219); test: Inhibition of COX1 in human whole blood; type: functional, tissue-based
[21] = Tmax in mouse at 2 mg/kg, po; type: ADME, organism-based; parameters: dose 2 mg/kg, route oral; conditions: in vivo
[22] = Oral bioavailability in mouse at 2 mg/kg, po; type: ADME, organism-based; conditions: in vivo
[23] = Clearance in dog at 2 mg/kg, iv; type: ADME, organism-based, Canis lupus familiaris; parameters: dose 2 mg/kg, route intravenous; conditions: in vivo
[24] = Volume of distribution in dog at 2 mg/kg, iv; type: ADME, organism-based, Canis lupus familiaris; parameters: dose 2 mg/kg, route intravenous; conditions: in vivo, read-out: Vdss
[25] = Half life in dog at 2 mg/kg, iv; type: ADME, organism-based, Canis lupus familiaris; parameters: dose 2 mg/kg, route intravenous; conditions: in vivo
[26] = Cmax in dog at 2 mg/kg, po; type: ADME, organism-based, Canis lupus familiaris; parameters: dose 2 mg/kg, route oral; conditions: in vivo
[27] = Tmax in dog at 2 mg/kg, po; type: ADME, organism-based, Canis lupus familiaris; parameters: dose 2 mg/kg, route oral; conditions: in vivo
[28] = Oral bioavailability in dog at 2 mg/kg, po; type: ADME, organism-based, Canis lupus familiaris; conditions: in vivo
[29] = Clearance in monkey at 2 mg/kg, iv; type: ADME, organism-based, Macaca mulatta; parameters: dose 2 mg/kg, route intravenous; conditions: rhesus monkey, in vivo
[30] = Volume of distribution in monkey at 2 mg/kg, iv; type: ADME, organism-based, Macaca mulatta; parameters: dose 2 mg/kg, route intravenous; conditions: rhesus monkey, in vivo, read-out: Vdss
[31] = Half life in monkey at 2 mg/kg, iv; type: ADME, organism-based, Macaca mulatta; parameters: dose 2 mg/kg, route intravenous; conditions: rhesus monkey, in vivo
[32] = Cmax in monkey at 2 mg/kg, po; type: ADME, organism-based, Macaca mulatta; parameters: dose 2 mg/kg, route oral; conditions: rhesus monkey, in vivo
[33] = Tmax in monkey at 2 mg/kg, po; type: ADME, organism-based, Macaca mulatta; parameters: dose 2 mg/kg, route oral; conditions: rhesus monkey, in vivo
Mus musculus [34] = test: Decrease in beta amyloid protein 42 level in Tg2576 transgenic mouse at 21 mg/kg relative to control; type: functional; parameters: scale not given: the % may be the effect or the level left
Mus musculus [35] = test: Decrease in beta amyloid protein 40 level in Tg2576 transgenic mouse at 21 mg/kg relative to control; type: functional; parameters: scale not given: the % may be the effect or the level left
[36] = Clearance in rat at 2 mg/kg, iv; type: ADME, organism-based; parameters: dose 2 mg/kg, route intravenous; conditions: in vivo
[37] = molecular target: T1, Gamma-secretase (Homo sapiens); test: Inhibition of beta amyloid protein 42 in SH-SY5Y cell lines overexpressing SPA4CT at 600 uM; type: functional, cell-based

Chain of Prostaglandin G/H synthase 1 (P23219 whole entry): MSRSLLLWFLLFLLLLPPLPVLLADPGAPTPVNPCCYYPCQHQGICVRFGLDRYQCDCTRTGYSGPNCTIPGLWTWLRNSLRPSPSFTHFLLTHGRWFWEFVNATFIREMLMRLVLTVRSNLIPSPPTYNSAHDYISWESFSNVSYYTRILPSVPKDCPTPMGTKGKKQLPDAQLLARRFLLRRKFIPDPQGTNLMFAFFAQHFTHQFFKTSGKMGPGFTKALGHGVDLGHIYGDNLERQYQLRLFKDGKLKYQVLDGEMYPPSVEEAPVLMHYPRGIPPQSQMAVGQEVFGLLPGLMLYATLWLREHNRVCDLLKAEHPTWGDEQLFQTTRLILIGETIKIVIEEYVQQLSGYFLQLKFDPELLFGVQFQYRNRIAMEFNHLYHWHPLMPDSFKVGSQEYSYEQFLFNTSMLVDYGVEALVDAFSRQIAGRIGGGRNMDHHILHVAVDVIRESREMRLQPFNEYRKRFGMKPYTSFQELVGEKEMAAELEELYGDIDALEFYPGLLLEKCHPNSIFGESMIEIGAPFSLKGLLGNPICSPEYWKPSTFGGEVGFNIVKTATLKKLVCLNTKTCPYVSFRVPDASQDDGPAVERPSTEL

CC(C)(C(=O)O)c1ccc2c(c1)[nH]c1ccc(Cl)cc12
inhibition at 100 µM [1]: 40%
inhibition (HEK293): inactive

C[C@H](C(=O)O)c1ccc(-c2ccccc2)c(F)c1 [ESFLURBIPROFEN]
inhibition at 100 µM [1]: 65%
inhibition [2]: 37%

CC1=C(CC(=O)O)c2cc(F)ccc2/C1=C\c1ccc(S(C)(=O)=O)cc1 [EXISULIND]
inhibition at 40 µM [3]: 0%
inhibition [4]: 9%

COc1ccc2cc(C(C)(C)C(=O)O)ccc2c1
inhibition at 100 µM [1]: 0%
inhibition (HEK293): inactive

COc1ccc2cc([C@H](C)C(=O)O)ccc2c1 [NAPROXEN]
concentration (Mus musculus [5]): 27 µM
concentration (Mus musculus [6]): 887 µM
Kp [7]: 0.03
inhibition [8]: 3%

CC(C)(C(=O)O)c1ccc(-c2ccccc2)c(F)c1
Activity [9]: inactive
bioavailability [10]: 90%
inhibition at 100 µM [1]: 67%
inhibition (HEK293): inactive
Vd [11]: 0.15 L/kg
half-life [12]: 3.4 h
Cmax [13]: 15.2 µM
Tmax [14]: 2 h
bioavailability [15]: 79%
clearance [16]: 0.7 mL/min/kg
Vd [17]: 0.22 L/kg
half-life [18]: 4.6 h
Cmax [19]: 24.4 µM
IC50 [20]: > 100 µM
Tmax [21]: 0.25 h
bioavailability [22]: 81%
clearance [23]: 0.28 mL/min/kg
Vd [24]: 0.11 L/kg
half-life [25]: 11.3 h
Cmax [26]: 76.4 µM
Tmax [27]: 0.33 h
bioavailability [28]: 87%
clearance [29]: 3.8 mL/min/kg
Vd [30]: 0.3 L/kg
half-life [31]: 8 h
Cmax [32]: 27.3 µM
Tmax [33]: 0.25 h
Activity (Mus musculus [34]): 18%
Activity (Mus musculus [35]): 13%
concentration (Mus musculus [5]): 13 µM
concentration (Mus musculus [6]): 849 µM
Kp [7]: 0.02
clearance [36]: 1.3 mL/min/kg

CC(C)(C(=O)O)c1cccc(Oc2ccccc2)c1
inhibition at 100 µM [1]: 0%
inhibition (HEK293): inactive

CC(=O)Nc1ccc(O)cc1 [ACETAMINOPHEN]
concentration (Mus musculus [5]): 43 µM
concentration (Mus musculus [6]): 64 µM
Kp [7]: 0.68

CC(C(=O)O)c1cccc(Oc2ccccc2)c1 (stereo not drawn) [FENOPROFEN]
concentration (Mus musculus [5]): 41 µM
concentration (Mus musculus [6]): 1360 µM
Kp [7]: 0.03

COc1ccc2c(c1)c(C(C)(C)C(=O)O)c(C)n2C(=O)c1ccc(Cl)cc1
inhibition at 100 µM [1]: 2%
inhibition (HEK293): inactive

CSc1ccc(/C=C2/C(C)=C(CC(=O)O)c3cc(F)ccc32)cc1 [SULINDAC SULFIDE]
inhibition at 40 µM [3]: 54%
inhibition [4]: 73%
concentration (Mus musculus [5]): 1.7 µM
concentration (Mus musculus [6]): 296 µM
Kp [7]: 0.006

CC(C)Cc1ccc(C(C)(C)C(=O)O)cc1
inhibition at 100 µM [1]: 3%
inhibition (HEK293): inactive

O=C(O)Cc1ccccc1Nc1c(Cl)cccc1Cl
inhibition [2]: 17%

COc1ccc2c(c1)c(CC(=O)O)c(C)n2C(=O)c1ccc(Cl)cc1 [INDOMETHACIN]
inhibition at 100 µM [1]: 73%
inhibition [2]: 53%
concentration (Mus musculus [5]): 3 µM
concentration (Mus musculus [6]): 266 µM
Kp [7]: 0.01

Cc1cccc(Nc2ccccc2C(=O)O)c1C [MEFENAMIC ACID]
concentration (Mus musculus [5]): 2.7 µM
concentration (Mus musculus [6]): 87 µM
Kp [7]: 0.03

CC(C)Cc1ccc(C(C)C(=O)O)cc1 (stereo not drawn) [IBUPROFEN]
inhibition at 100 µM [1]: 28%
inhibition [37]: 41%
Activity (Mus musculus [34]): 20%
Activity (Mus musculus [35]): 11%
concentration (Mus musculus [5]): 18 µM
concentration (Mus musculus [6]): 592 µM
Kp [7]: 0.03

C[C@@H](C(=O)O)c1ccc(-c2ccccc2)c(F)c1 [TARENFLURBIL]
inhibition at 100 µM [1]: 51%
inhibition [2]: 23%
concentration (Mus musculus [5]): 41 µM
concentration (Mus musculus [6]): 1190 µM
Kp [7]: 0.04
